Source: paper PMC4666608, “Metabolic Profiling of Chicken Embryos Exposed to Perfluorooctanoic Acid (PFOA) and Agonists to Peroxisome Proliferator-Activated Receptors” (PLoS ONE, 2015)
Marks after values point to notes of the source that are not given here.

Test system: chicken embryos
Assay: Metabolic profiling of blood plasma (GC-MS, LC-MS, OPLS-DA)
Assay type: in vivo, Gallus gallus domesticus
Description: Controls were injected with 20 μL vehicle only (DMSO).
Plasma was collected and stored at -70°C.
Metabolites in allantoic fluid and blood plasma were analyzed using gas chromatography-mass spectrometry (GC-MS) and liquid chromatography-mass spectrometry (LC-MS) as described in S1 Methods. Prior to GC-MS and LC-MS analysis, allantoic fluid (100 μL) and blood plasma (50 μL) were extracted. To each sample, 900 μL (allantoic fluid) or 450 μL (blood plasma) of extraction buffer (90/10 v/v methanol:water) including all internal standards were added. Standards for GC-MS were proline, succinic acid, glutamic acid, salicylic acid, alpha-ketoglutarate, putrescine, myristic acid, hexadecanoic acid, cholesterol, and sucrose. Standards for LC-MS were Val-Tyr-Val, Leu-enkephalin, sulfadimethoxine and reserpine. Samples were homogenized by shaking in a bead mill at a frequency of 30 Hz for 3 minutes and proteins were precipitated at +4°C on ice. The samples were centrifuged at +4°C, 14000 rpm, for 10 min. Then, 200 μL supernatant was transferred to a GC microvial and 200 μL was transferred to an LC microvial, and solvents were evaporated. Samples from the four replicate experiments were analyzed using in chronological order and within each replicate experiment the run order of the individual samples was randomized.
Multivariate statistical analyses of metabolite profiles were performed using the software package SIMCA-P version 13.0 (Umetrics, Umeå, Sweden). Data was centered and scaled to variance 1 (UV scaling) prior to modelling. To reduce unintended systematic variation caused by sample processing and instrument drift, GC-MS and LC-MS metabolite amounts (expressed as the area under the chromatographic peak) were normalized by Orthogonal Partial Least Squares analysis (O2PLS) prior to multivariate data analysis. O2PLS finds common (predictive) and unique (orthogonal) variation in two data matrices. If applied to find the common variation between the data matrix containing the measured metabolite concentrations and a matrix containing only the internal standards, the only common (predictive) variation expected is due to the unintended systematic variation. By deleting the contribution of the predictive latent variables, that variation can be removed from the data. Models obtained after this normalization contain in general less latent variables, and this simplification helps when deciding on the number of latent variables to be used. Following normalization, GC-MS and LC-MS data were analyzed together. Initially, a global Principal Component Analysis (PCA) was performed to get an overview of groups and trends and to identify outliers. Projections to latent structures by means of Orthogonal Partial Least Squares Discriminant Analysis (OPLS-DA) was used to model the relationship between the X-matrix (metabolite concentrations) and the Y matrix (class, i.e. exposure group or sex), and to find x-variables that were related to class belonging. OPLS-DA is a supervised prediction and regression method that rotates the projection plane to find the maximum covariance between the data and the class assignment. All groups were first analyzed together in a 5-class OPLS-DA and then each exposure group was analyzed against the control group in a 2-class OPLS-DA. Sex differences were analyzed both using the whole data set and in each group separately using 2-class OPLS-DA, with females and males as the two classes. Only variables with 80% or more nonzero values were included in the statistical models. […] The validity of each model was also checked using CV-ANOVA (ANOVA of the cross-validated residuals). A significance level of p < 0.05 was used. For each model, R ^2 X, R ^2 Y and Q ^2 values were calculated, where R ^2 X is a measure of the fraction of x variation modeled in the extracted latent variables, R ^2 Y is a measure of the fraction of y variation modeled and Q ^2 is an estimate of the predictive ability of the model and is calculated by cross-validation. […]

In the case of `CC(C)(Sc1ccc(CCN(CCCCC2CCCCC2)C(=O)NC2CCCCC2)cc1)C(=O)O` [GW7647, reference compound], the “Mean concentration relative to control, feature Win006_C03” value (GC) is reported as 1.3***, the “Mean concentration relative to control, feature Win011_C02 (Isoleucine)” value (GC) is reported as 1.2** and the “Mean concentration relative to control, feature Win027_C13” value (GC) is reported as 0.9. The “Mean concentration relative to control, feature Win031_C03 (Citric acid)” value (GC) was 0.8**, the “Mean concentration relative to control, feature Win034_C08 (Tyrosine)” value (GC) was 1.2*** and the “Mean concentration relative to control, feature Win034_C09 (Tyrosine)” value (GC) was 1.3***. The “Mean concentration relative to control, feature Win039_C07” value (GC) was 1.8***, the “Mean concentration relative to control, feature Win043_C02 (Cystathionine)” value (GC) was 1.6*** and the “Mean concentration relative to control, feature Win061_C01” value (GC) was 1.4*. The “Mean concentration relative to control, feature Win066_C03” value (GC) was 1.3**, the “Mean concentration relative to control, feature Win088_C02” value (GC) was 1.2** and the “Mean concentration relative to control, feature 118.0284@2.480333 (C4H6O4)” value (LC) was 0.9. The “Mean concentration relative to control, feature 122.0486@0.675613” value (LC) was 0.7**, the “Mean concentration relative to control, feature 126.0428@1.2278157 (Thymine)” value (LC) was 1.2*** and the “Mean concentration relative to control, feature 146.0362@0.7772238” value (LC) was 1.3**. For the same compound, the “Mean concentration relative to control, feature 159.0686@1.1608156” value (LC) was 1.6**, the “Mean concentration relative to control, feature 164.0449@0.7694838” value (LC) was 1.2** and the “Mean concentration relative to control, feature 202.1024@5.0303197 (C8H14N2O4)” value (LC) was 1.4**. For the same compound, the “Mean concentration relative to control, feature 203.1162@0.5130696” value (LC) was 0.8***, the “Mean concentration relative to control, feature 213.2458@7.4887733” value (LC) was 1 and the “Mean concentration relative to control, feature 215.047@1.6260729 (C5H14NO6P)” value (LC) was 0.8***. The “Mean concentration relative to control, feature 226.0721@1.9460537” value (LC) was 1.1**, the “Mean concentration relative to control, feature 231.0174@1.6241412” value (LC) was 0.7** and the “Mean concentration relative to control, feature 233.1265@2.535991” value (LC) was 1.4**. The “Mean concentration relative to control, feature 250.1317@2.1334834” value (LC) was 1.7**, the “Mean concentration relative to control, feature 260.0508@0.69984084” value (LC) was 0.8 and the “Mean concentration relative to control, feature 276.0173@1.6283482” value (LC) was 0.7**. For the same compound, the “Mean concentration relative to control, feature 278.0939@1.3354088” value (LC) was 0.8***, the “Mean concentration relative to control, feature 293.0903@1.5739433” value (LC) was 1.2*** and the “Mean concentration relative to control, feature 307.2147@7.5065937 (C18H29NO3)” value (LC) was 0.9. For the same compound, the “Mean concentration relative to control, feature 310.178@7.5343466” value (LC) was 1, the “Mean concentration relative to control, feature 339.3861@9.528681” value (LC) was 1.1 and the “Mean concentration relative to control, feature 342.2883@7.526812” value (LC) was 1.1. For the same compound, the “Mean concentration relative to control, feature 348.0675@1.5761927” value (LC) was 1.1**, the “Mean concentration relative to control, feature 355.9454@0.68034226” value (LC) was 0.9** and the “Mean concentration relative to control, feature 362.1467@0.8461036” value (LC) was 1.2***. The “Mean concentration relative to control, feature 366.1431@1.4228548” value (LC) was 1.1, the “Mean concentration relative to control, feature 373.296@9.044806” value (LC) was 0.8*** and the “Mean concentration relative to control, feature 375.3108@8.995564” value (LC) was 0.8**. The “Mean concentration relative to control, feature 389.2686@9.046645” value (LC) was 0.9**, the “Mean concentration relative to control, feature 407.0999@1.585909” value (LC) was 1 and the “Mean concentration relative to control, feature 412.135@2.4779084 (C17H24N4O6S)” value (LC) was 0.9. For the same compound, the “Mean concentration relative to control, feature 444.3607@10.33052” value (LC) was 0.9, the “Mean concentration relative to control, feature 471.9819@0.685074” value (LC) was 0.8* and the “Mean concentration relative to control, feature 489.1508@8.562614” value (LC) was 0.7**. The “Mean concentration relative to control, feature 509.1184@2.4798179” value (LC) was 1, the “Mean concentration relative to control, feature 525.2855@8.361063” value (LC) was 1.4** and the “Mean concentration relative to control, feature 545.2492@8.463657” value (LC) was 1.2*. For the same compound, the “Mean concentration relative to control, feature 558.4095@9.459733” value (LC) was 1.3, the “Mean concentration relative to control, feature 565.1902@0.7699907” value (LC) was 1.2*** and the “Mean concentration relative to control, feature 577.2747@9.25652” value (LC) was 1.2**. The “Mean concentration relative to control, feature 581.1643@0.77029324” value (LC) was 1.3***, the “Mean concentration relative to control, feature 634.2403@1.9467853” value (LC) was 1.5* and the “Mean concentration relative to control, feature 644.1614@0.7647065” value (LC) was 1.2**. For the same compound, the “Mean concentration relative to control, feature 659.5483@11.4915495” value (LC) was 0.7***, the “Mean concentration relative to control, feature 698.2598@1.3599721” value (LC) was 1.1 and the “Mean concentration relative to control, feature 700.5514@10.765638” value (LC) was 1.4*. The “Mean concentration relative to control, feature 755.5465@10.73882” value (LC) was 0.9, the “Mean concentration relative to control, feature 827.5078@8.831237” value (LC) was 1.5* and the “Mean concentration relative to control, feature 875.4661@10.5661745” value (LC) was 1.3***. For the same compound, the “Mean concentration relative to control, feature 1262.4865@1.947075” value (LC) was 1.1**, the “Mean concentration relative to control, feature 1316.4163@1.9465046” value (LC) was 1.1** and the “Mean concentration relative to control, feature 1591.051@5.0189176” value (LC) was 0.8**. The “Mean concentration relative to control, feature 1591.388@5.0202384” value (LC) was 0.8*** and the “Mean concentration relative to control, feature 1591.7203@5.018071” value (LC) was 0.8**.
